One test addresses human TLR7 (Homo sapiens (Human), UniProt Q9NYK1). The test is described as follows: TLR7 inhibition reporter assay (HEK-Blue SEAP reporter, gardiquimod stimulation). As to conditions: HEK-Blue cells overexpressing human TLR7, gardiquimod 7.5 μM. It counts as cell-based. Background: Reporter assays use an easily measured gene product as a stand-in for the process of interest.
The target in the next test is human TLR8 (Homo sapiens (Human), UniProt Q9NR97). As to the kind of experiment: TLR8 inhibition reporter assay (HEK-Blue SEAP reporter, R848 stimulation).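 Note: SEAP driven by IFN-β minimal promoter with NF-κB and AP-1 sites, 22 h incubation, compounds 0.05 nM–50 µM, inhibition scaled between agonist plus DMSO and reference inhibitor wells.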
Another test concerns the target human TLR9 (Homo sapiens (Human), UniProt Q9NR96). As to the kind of experiment: TLR9 inhibition reporter assay (HEK-Blue SEAP reporter, ODN2006 stimulation).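 Note: SEAP reporter under IFN-β minimal promoter with five NF-κB and AP-1 sites, 22 h incubation, compounds 0.05 nM–50 µM, inhibition relative to agonist plus DMSO versus known inhibitor.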
Where [1] appears, read: read-out: TLR8 IC50, HEK-Blue cells overexpressing human TLR8, R848 15.9 μM, SEAP reporter.
[2] abbreviates: read-out: TLR9 IC50, HEK-Blue cells overexpressing human TLR9, ODN2006 5 nM, SEAP reporter.

Structures are written as SMILES. Where a name gives a salt, the structure may show the parent alone. Read-outs that look alike come from different tables or passages of the source. Bounds are passed on as bounds.

human TLR7, sequence (Q9NYK1 27-1049): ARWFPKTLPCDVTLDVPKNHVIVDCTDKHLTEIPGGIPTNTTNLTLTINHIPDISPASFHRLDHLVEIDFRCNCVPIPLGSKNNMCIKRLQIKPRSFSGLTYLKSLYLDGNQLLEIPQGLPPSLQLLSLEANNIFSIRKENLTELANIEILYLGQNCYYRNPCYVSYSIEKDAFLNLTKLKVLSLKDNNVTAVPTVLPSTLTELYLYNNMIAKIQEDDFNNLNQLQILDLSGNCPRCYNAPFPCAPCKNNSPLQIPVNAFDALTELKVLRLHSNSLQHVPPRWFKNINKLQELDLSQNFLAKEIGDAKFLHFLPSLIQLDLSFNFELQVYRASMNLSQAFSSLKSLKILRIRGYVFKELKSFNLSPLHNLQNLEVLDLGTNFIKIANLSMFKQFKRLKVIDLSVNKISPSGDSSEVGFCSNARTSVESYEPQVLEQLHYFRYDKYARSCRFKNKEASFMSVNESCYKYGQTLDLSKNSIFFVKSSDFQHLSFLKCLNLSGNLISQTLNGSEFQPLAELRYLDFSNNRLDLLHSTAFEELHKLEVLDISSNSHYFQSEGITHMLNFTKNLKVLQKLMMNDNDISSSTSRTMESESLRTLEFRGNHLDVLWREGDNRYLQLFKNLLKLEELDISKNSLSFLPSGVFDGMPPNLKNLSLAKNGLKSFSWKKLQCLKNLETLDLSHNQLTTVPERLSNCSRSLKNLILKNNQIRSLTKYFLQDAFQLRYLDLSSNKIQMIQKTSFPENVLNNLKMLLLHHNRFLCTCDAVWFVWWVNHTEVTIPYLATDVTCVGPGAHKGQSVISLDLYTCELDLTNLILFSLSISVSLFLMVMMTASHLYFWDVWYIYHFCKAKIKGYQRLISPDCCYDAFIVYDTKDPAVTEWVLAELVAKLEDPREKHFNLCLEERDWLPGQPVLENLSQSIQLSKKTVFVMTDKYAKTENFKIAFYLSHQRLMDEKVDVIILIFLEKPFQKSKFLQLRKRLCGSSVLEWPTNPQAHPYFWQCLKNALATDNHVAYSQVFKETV
human TLR9, sequence (Q9NR96 26-1032): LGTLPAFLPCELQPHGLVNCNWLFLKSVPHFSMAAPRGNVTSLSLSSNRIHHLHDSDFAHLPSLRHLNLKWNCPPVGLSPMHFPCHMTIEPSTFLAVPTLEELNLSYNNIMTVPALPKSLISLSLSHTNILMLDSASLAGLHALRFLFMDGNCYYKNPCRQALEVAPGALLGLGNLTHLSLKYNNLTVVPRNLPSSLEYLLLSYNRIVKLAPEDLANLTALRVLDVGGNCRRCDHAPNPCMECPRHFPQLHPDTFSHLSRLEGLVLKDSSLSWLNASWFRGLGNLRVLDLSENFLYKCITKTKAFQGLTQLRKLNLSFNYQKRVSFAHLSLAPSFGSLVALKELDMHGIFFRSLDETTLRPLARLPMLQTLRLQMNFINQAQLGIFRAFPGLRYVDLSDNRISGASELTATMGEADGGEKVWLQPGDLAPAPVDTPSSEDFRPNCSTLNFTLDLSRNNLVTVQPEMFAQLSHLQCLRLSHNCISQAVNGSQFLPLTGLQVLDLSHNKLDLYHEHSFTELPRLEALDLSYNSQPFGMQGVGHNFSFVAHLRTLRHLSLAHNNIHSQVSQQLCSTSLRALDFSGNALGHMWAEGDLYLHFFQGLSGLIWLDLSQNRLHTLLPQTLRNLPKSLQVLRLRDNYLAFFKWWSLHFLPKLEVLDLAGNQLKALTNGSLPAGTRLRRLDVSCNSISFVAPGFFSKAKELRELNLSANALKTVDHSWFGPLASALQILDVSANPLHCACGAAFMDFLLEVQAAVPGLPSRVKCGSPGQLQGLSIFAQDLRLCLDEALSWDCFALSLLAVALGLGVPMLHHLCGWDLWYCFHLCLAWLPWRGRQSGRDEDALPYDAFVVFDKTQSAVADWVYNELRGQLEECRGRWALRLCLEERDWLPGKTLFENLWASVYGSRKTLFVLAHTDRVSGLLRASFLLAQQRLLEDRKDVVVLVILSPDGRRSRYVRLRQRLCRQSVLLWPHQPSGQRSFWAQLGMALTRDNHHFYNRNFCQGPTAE
human TLR8, sequence (Q9NR97 27-1041): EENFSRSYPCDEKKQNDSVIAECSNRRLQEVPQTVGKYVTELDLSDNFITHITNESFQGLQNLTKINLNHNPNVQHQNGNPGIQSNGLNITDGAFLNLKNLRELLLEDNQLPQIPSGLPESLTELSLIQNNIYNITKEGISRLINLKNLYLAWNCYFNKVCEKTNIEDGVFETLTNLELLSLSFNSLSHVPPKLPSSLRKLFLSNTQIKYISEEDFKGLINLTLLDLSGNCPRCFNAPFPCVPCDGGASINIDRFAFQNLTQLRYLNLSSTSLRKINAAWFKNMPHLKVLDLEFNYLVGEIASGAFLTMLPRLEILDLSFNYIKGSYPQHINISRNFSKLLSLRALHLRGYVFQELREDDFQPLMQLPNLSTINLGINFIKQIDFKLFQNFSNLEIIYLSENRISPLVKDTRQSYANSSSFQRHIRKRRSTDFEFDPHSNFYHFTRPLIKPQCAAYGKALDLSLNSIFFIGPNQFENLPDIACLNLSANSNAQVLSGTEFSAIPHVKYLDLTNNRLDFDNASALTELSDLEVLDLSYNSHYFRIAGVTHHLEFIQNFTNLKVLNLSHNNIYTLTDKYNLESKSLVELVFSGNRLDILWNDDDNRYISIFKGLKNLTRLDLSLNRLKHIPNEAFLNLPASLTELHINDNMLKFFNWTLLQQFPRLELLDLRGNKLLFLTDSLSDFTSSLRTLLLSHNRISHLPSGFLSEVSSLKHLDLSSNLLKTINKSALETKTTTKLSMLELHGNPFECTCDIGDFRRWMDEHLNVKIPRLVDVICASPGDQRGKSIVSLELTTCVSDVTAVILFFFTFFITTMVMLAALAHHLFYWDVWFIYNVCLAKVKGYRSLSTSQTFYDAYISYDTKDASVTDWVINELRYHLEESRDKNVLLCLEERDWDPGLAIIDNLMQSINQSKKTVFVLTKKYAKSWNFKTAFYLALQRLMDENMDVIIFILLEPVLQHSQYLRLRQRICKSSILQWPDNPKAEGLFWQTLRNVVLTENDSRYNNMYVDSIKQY
Description for human TLR7: HEK-Blue™-cells (Invivogen) overexpressing human TLR7, TLR8 or TLR9 receptors were used for screening inhibitors of these receptors using an inducible SEAP (secreted embryonic alkaline phosphatase) reporter gene under the control of the IFN-β minimal promoter fused to five NF-κB and AP-1-binding sites. Briefly, cells are seeded into Greiner 384 well plates (15000 cells per well for TLR7, 20,000 for TLR8 and 25,000 for TLR9) and then treated with test compounds in DMSO to yield a final dose response concentration range of 0.05 nM-50 μM. After a 30 minute compound pre-treatment at room temperature, the cells are then stimulated with a TLR7 ligand (gardiquimod at a final concentration of 7.5 μM), TLR8 ligand (R848 at a final concentration of 15.9 μM) or TLR9 ligand (ODN2006 at a final concentration of 5 nM) to activate NF-κB and AP-1 which induce the production of SEAP. After a 22 hour incubation at 37° C., 5% CO2, SEAP levels are determined with the addition of HEK-Blue™ Detection reagent (Invivogen), a cell culture medium that allows for detection of SEAP, according to manufacturer's specifications.

Turning to `CCc1c(-c2ccc(OC)c(OC)c2)[nH]c2ccc(C(=O)N3CC4CNCC4C3)cc12` (stereo not drawn) [Example 79, (2-(3,4-dimethoxyphenyl)-3-ethyl-1H-indol-5-yl)(hexahydropyrrolo[3,4-c]pyrrol-2(1H)-yl)methanone], the IC50 (usually the concentration that inhibits the measured activity by half) came to 296 nM against human TLR7, 124 nM on human TLR8 (setting [1]) and 1050 nM at human TLR9 (setting [2]).

Consider `CCc1c(-c2ccc(OC)c(OC)c2)[nH]c2ccc(C(=O)N3CCN(C4CCN(C(C)C)CC4)CC3)cc12` [Example 80, (2-(3,4-dimethoxyphenyl)-3-ethyl-1H-indol-5-yl)(4-(I-isopropylpiperidin-4-yl)piperazin-1-yl) methanone], for which the IC50 on human TLR7 turned out to be 177 nM; on human TLR8 (setting [1]) it was 2.9 nM; on human TLR9 (setting [2]), 836 nM.

On to `CCc1c(-c2ccc(OC)c(OC)c2)[nH]c2ccc(C(=O)N3CC4CN(C(C)C)CC4C3)cc12` (stereo not drawn) [Example 81, (2-(3,4-dimethoxyphenyl)-3-ethyl-1H-indol-5-yl)(5-isopropylhexahydropyrrolo[3,4-c]pyrrol-2(1H)-yl)methanone], for which the IC50 came to 418 nM on human TLR7, 87 nM on human TLR8 (setting [1]) and 1920 nM on human TLR9 (setting [2]).

Regarding `CCc1c(-c2ccc(OC)c(OC)c2)[nH]c2ccc(C(=O)N3CC4CN(CC(=O)NC)CC4C3)cc12` (stereo not drawn) [Example 82, 2-(5-(2-(3,4-dimethoxyphenyl)-3-ethyl-1H-indole-5-carbonyl)hexahydropyrrolo[3,4-c]pyrrol-2(1H)-yl)-N-methylacetamide], the IC50 amounted to 515 nM against human TLR7, 446 nM on human TLR8 (setting [1]) and 21900 nM on human TLR9 (setting [2]).

Consider `CCc1c(-c2ccnc3[nH]ccc23)[nH]c2ccc(C(=O)N(CC)CCN(C)C)cc12` [Example 83, N-(2-(dimethylamino)ethyl)-N,3-diethyl-2-(1H-pyrrolo[2,3-b]pyridin-4-yl)-1H-indole-5-carboxamide], for which the values for the IC50 against human TLR7, on human TLR8 (setting [1]) and at human TLR9 (setting [2]) were 16 nM, 0.5 nM and 2350 nM, respectively.

Consider `CCc1c(-c2ccnc(C)c2)[nH]c2ccc(C(=O)N(CC)CCN(C)C)cc12` [Example 84, N-(2-(dimethylamino)ethyl)-N,3-diethyl-2-(2-methylpyridin-4-yl)-1H-indole-5-carboxamide], for which the IC50 was 49 nM against human TLR7, 2.1 nM on human TLR8 (setting [1]) and 2520 nM on human TLR9 (setting [2]).

Turning to `CCc1c(-c2ccnc(C)c2)[nH]c2ccc(C(=O)N3CC4CNCC4C3)cc12` (stereo not drawn) [Example 85, (3-ethyl-2-(2-methylpyridin-4-yl)-1H-indol-5-yl)(hexahydropyrrolo[3,4-c]pyrrol-2(1H)-yl)methanone], the figures for the IC50 at human TLR7, at human TLR8 (setting [1]) and on human TLR9 (setting [2]) were 776 nM, 160 nM and 386 nM, respectively.

Take `CCc1c(-c2ccnc(C)c2)[nH]c2ccc(C(=O)N3CC4CN(C(C)C)CC4C3)cc12` (stereo not drawn) [Example 86, (3-ethyl-2-(2-methylpyridin-4-yl)-1H-indol-5-yl)(5-isopropylhexahydropyrrolo[3,4c]pyrrol-2(1H)-yl)methanone]: the IC50 at human TLR7 was 469 nM; on human TLR8 (setting [1]), 28 nM; at human TLR9 (setting [2]), 1570 nM.

For the compound `CC(C)c1c(-c2ccnc(N)c2)[nH]c2ccc(C(=O)NC3CCC(N(C)C)CC3)cc12` (stereo not drawn) [Example 87, 2-(2-aminopyridin-4-yl)-N-(4-(dimethylamino)cyclohexyl)-3-isopropyl-1H-indole-5-carboxamide], the IC50 against human TLR7 is 1050 nM; at human TLR8 (setting [1]), 27 nM; on human TLR9 (setting [2]) it was 438 nM.

With `COc1ccc(-c2[nH]c3ccc(C(=O)N4CC5CNCC5C4)cc3c2CC(F)(F)F)cc1OC` (stereo not drawn) [Example 88, (2-(3,4-dimethoxyphenyl)-3-(2,2,2-trifluoroethyl)-1H-indol-5-yl)(hexahydropyrrolo[3,4-c]pyrrol-2(1H)-yl)methanone hydrochloride], the IC50 on human TLR7 came out at 401 nM; at human TLR8 it was 278 nM; against human TLR9, 593 nM.

As for `COc1ccc(-c2[nH]c3ccc(C(=O)N4CC5CN(C(=O)CN(C)C)CC5C4)cc3c2CC(F)(F)F)cc1OC` (stereo not drawn) [Example 89, 1-(5-(2-(3,4-dimethoxyphenyl)-3-(2,2,2-trifluoroethyl)-1H-indole-5-carbonyl)hexahydropyrrolo[3,4-c]pyrrol-2(1H)-yl)-2-(dimethylamino)ethan-1-one], the IC50 is 914 nM at human TLR7, 217 nM at human TLR8 (setting [1]) and 5860 nM at human TLR9 (setting [2]).

Turning to `COc1ccc(-c2[nH]c3ccc(C(=O)N4CC5CN(CC(=O)N(C)C)CC5C4)cc3c2CC(F)(F)F)cc1OC` (stereo not drawn) [Example 90, 2-(5-(2-(3,4-dimethoxyphenyl)-3-(2,2,2-trifluoroethyl)-1H-indole-5-carbonyl)hexahydropyrrolo[3,4-c]pyrrol-2(1H)-yl)-N,N-dimethylacetamide], the IC50 against human TLR7 was 866 nM; on human TLR8 (setting [1]), 344 nM; on human TLR9 (setting [2]), 4050 nM.

Consider `Cc1cc(-c2[nH]c3ccc(C(=O)NC4CCN(C(C)C)CC4)cc3c2C(C)C)cc(C)n1` [Example 91, 2-(2,6-dimethylpyridin-4-yl)-3-isopropyl-N-(1-isopropylpiperidin-4-yl)-1H-indole-5-carboxamide], for which the IC50 stood at 9.2 nM on human TLR7, 2.1 nM at human TLR8 (setting [1]) and 670 nM at human TLR9 (setting [2]).

`Cc1cc(-c2[nH]c3ccc(C(=O)N4CCCN(C)CC4)cc3c2C(C)C)cc(C)n1` [Example 92, (2-(2,6-dimethylpyridin-4-yl)-3-isopropyl-1H-indol-5-yl)(4-methyl-1,4-diazepan-1-yl)methanone]: the results for the concentration for half-maximal inhibition (IC50) on human TLR7, on human TLR8 (setting [1]) and at human TLR9 (setting [2]) were 32 nM, 3.2 nM and 2470 nM, respectively.

Take `CCN(CCN(C)C)C(=O)c1ccc2[nH]c(-c3cc(C)nc(C)c3)c(C(C)C)c2c1` [Example 93, N-(2-(dimethylamino)ethyl)-2-(2,6-dimethylpyridin-4-yl)-N-ethyl-3-isopropyl-1H-indole-5-carboxamide]: the IC50 stood at 2.9 nM against human TLR7, 1.4 nM at human TLR8 (setting [1]) and 594 nM on human TLR9 (setting [2]).

Turning to `Cc1cc(-c2[nH]c3ccc(C(=O)N(C)C)cc3c2C(C)C)cc(C)n1` [Example 94, 2-(2,6-dimethylpyridin-4-yl)-3-isopropyl-N,N-dimethyl-1H-indole-5-carboxamide], the IC50 was 18 nM at human TLR7, 23 nM at human TLR8 (setting [1]) and more than 50000 nM on human TLR9 (setting [2]).

Regarding `Cc1cc(-c2[nH]c3ccc(C(=O)NCCCN(C)C)cc3c2C(C)C)cc(C)n1` [Example 95, N-(3-(dimethylamino)propyl)-2-(2,6-dimethylpyridin-4-yl)-3-isopropyl-1H-indole-5-carboxamide], the IC50 against human TLR7 worked out at 50 nM; on human TLR8 (setting [1]) it was 3.6 nM; at human TLR9 (setting [2]), 516 nM.

In the case of `Cc1cc(-c2[nH]c3ccc(C(=O)NCCN(C)C)cc3c2C(C)C)cc(C)n1` [Example 96, N-(2-(dimethylamino)ethyl)-2-(2,6-dimethylpyridin-4-yl)-3-isopropyl-1H-indole-5-carboxamide], the IC50 at human TLR7 is 75 nM; at human TLR8 (setting [1]), 7.3 nM; on human TLR9 (setting [2]), 1500 nM.

As for `CNC(=O)c1ccc2[nH]c(-c3cc(C)nc(C)c3)c(C(C)C)c2c1` [Example 97, 2-(2,6-dimethylpyridin-4-1)-3-isopropyl-N-methyl-1H-indole-5-carboxamide], the IC50 against human TLR7 is 45 nM; on human TLR8 (setting [1]), 30 nM; on human TLR9 (setting [2]) it was more than 50000 nM.

As to `Cc1cc(-c2[nH]c3ccc(C(=O)N4CCN(Cc5ncn(C)n5)CC4)cc3c2C(C)C)cc(C)n1` [Example 98, (2-(2,6-dimethylpyridin-4-yl)-3-isopropyl-1H-indol-5-yl)(4-((1-methyl-1H-1,2,4-triazol-3-yl)methyl)piperazin-1-yl)methanone], the IC50 against human TLR7 is 82 nM; on human TLR8 (setting [1]), 45 nM; on human TLR9 (setting [2]), more than 50000 nM.

For `Cc1cc(-c2[nH]c3ccc(C(=O)N(C)Cc4ccccc4)cc3c2C(C)C)cc(C)n1` [Example 99, N-benzyl-2-(2,6-dimethylpyridin-4-yl)-3-isopropyl-N-methyl-1H-indole-5-carboxamide], the IC50 worked out at 201 nM at human TLR7, 481 nM on human TLR8 (setting [1]) and 1830 nM on human TLR9 (setting [2]).

As for `Cc1cc(-c2[nH]c3ccc(C(=O)N(C)Cc4cccnc4)cc3c2C(C)C)cc(C)n1` [Example 100, 2-(2,6-dimethylpyridin-4-yl)-3-isopropyl-N-methyl-N-(pyridin-3-ylmethyl)-1H-indole-5-carboxamide], the IC50 at human TLR7 is 46 nM; on human TLR8 (setting [1]), 320 nM; on human TLR9 (setting [2]), more than 50000 nM.

As to `Cc1cc(-c2[nH]c3ccc(C(=O)N(C)C4CCN(C)CC4)cc3c2C(C)C)cc(C)n1` [Example 101, 2-(2,6-dimethylpyridin-4-yl)-3-isopropyl-N-methyl-N-(1-methylpiperidin-4-yl)-1H-indole-5-carboxamide], the values for the IC50 at human TLR7, on human TLR8 (setting [1]) and on human TLR9 (setting [2]) were 1.9 nM, 0.34 nM and 776 nM, respectively.

Consider `Cc1cc(-c2[nH]c3ccc(C(=O)N(C)CCc4ccccc4)cc3c2C(C)C)cc(C)n1` [Example 102, 2-(2,6-dimethylpyridin-4-yl)-3-isopropyl-N-methyl-N-phenethyl-1H-indole-5-carboxamide], for which the IC50 against human TLR7 amounted to 185 nM; at human TLR8 (setting [1]), 418 nM; at human TLR9 (setting [2]), 5060 nM.

Consider `Cc1cc(-c2[nH]c3ccc(C(=O)N(C)Cc4cccc(N)c4)cc3c2C(C)C)cc(C)n1` [Example 103, N-(3-aminobenzyl)-2-(2,6-dimethylpyridin-4-yl)-3-isopropyl-N-methyl-1H-indole-5-carboxamide], for which the IC50 against human TLR7 turned out to be 54 nM; at human TLR8 (setting [1]), 192 nM; at human TLR9 (setting [2]), 27100 nM.

As for `Cc1cc(-c2[nH]c3ccc(C(=O)N4CCC(N(C)C)CC4)cc3c2C(C)C)cc(C)n1` [Example 104, (4-(dimethylamino)piperidin-1-yl)(2-(2,6-dimethylpyridin-4-yl)-3-isopropyl-1H-indol-5-yl)methanone], the IC50 at human TLR7 stood at 14 nM; at human TLR8 (setting [1]), 12 nM; on human TLR9 (setting [2]), 373 nM.

(Values after patent US11420973B2, “Amide substituted indole compounds useful as TLR inhibitors” (BRISTOL-MYERS SQUIBB COMPANY, priority 2017, dated 2022).)
